Experimental data as given in the supplement of paper PMC10307832.

Assays:
Test in all cases: relative viability (nuclei count vs DMSO), 5 days (fraction); higher = more cells survive
HOP-62 = tested on: HOP-62
Procedure, shortened: (§1)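 Each reported value is a median over duplicate plates. It expresses relative viability: treated-well nuclei count divided by vehicle-well nuclei count. Lung cancer cell lines in 1536-well plates were dosed by pin tool a day after seeding, alone with one drug or with a fixed anchor-drug dose plus five library-drug doses (not always all listed) in √10 steps, and nuclei were counted after 5 days.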

NCI-H2126 = tested on: NCI-H2126
Procedure, shortened: as §1

BEN = tested on: BEN
Procedure, shortened: as §1

NCI-H1944 = tested on: NCI-H1944
Procedure, shortened: as §1

NCI-H647 = tested on: NCI-H647
Procedure, shortened: as §1

LOU-NH91 = tested on: LOU-NH91
Procedure, shortened: as §1

SK-MES-1 = tested on: SK-MES-1
Procedure, shortened: as §1

NCI-H1993 = tested on: NCI-H1993
Procedure, shortened: as §1

EKVX = tested on: EKVX
Procedure, shortened: as §1

LXF-289 = tested on: LXF-289
Procedure, shortened: as §1

NCI-H441 = tested on: NCI-H441
Procedure, shortened: as §1

HCC-827 = tested on: HCC-827
Procedure, shortened: as §1

Cc1cn(-c2cc(NC(=O)c3ccc(C)c(Nc4nccc(-c5cccnc5)n4)c3)cc(C(F)(F)F)c2)cn1 [Nilotinib] + Cc1cc(Nc2cc(N3CCN(C)CC3)nc(Sc3ccc(NC(=O)C4CC4)cc3)n2)n[nH]1 [Tozasertib] (partner 0.1 µM)
relative viability (HOP-62; first compound 0.001 µM): 0.288
relative viability (HOP-62; first compound 0.01 µM): 0.289
relative viability (NCI-H2126; first compound 0.001 µM): 0.786
relative viability (NCI-H2126; first compound 0.003162 µM): 0.857
relative viability (NCI-H2126; first compound 0.01 µM): 0.963
relative viability (NCI-H2126; first compound 0.03162 µM): 0.599
relative viability (NCI-H2126; first compound 0.1 µM): 0.438
relative viability (BEN; first compound 0.001 µM): 0.498
relative viability (BEN; first compound 0.003162 µM): 0.494
relative viability (BEN; first compound 0.01 µM): 0.456
relative viability (BEN; first compound 0.03162 µM): 0.408
relative viability (BEN; first compound 0.1 µM): 0.509
relative viability (NCI-H1944; first compound 0.001 µM): 0.248
relative viability (NCI-H1944; first compound 0.003162 µM): 0.3
relative viability (NCI-H1944; first compound 0.01 µM): 0.248
relative viability (NCI-H1944; first compound 0.03162 µM): 0.197
relative viability (NCI-H647; first compound 0.001 µM): 0.147
relative viability (NCI-H647; first compound 0.003162 µM): 0.227
relative viability (NCI-H647; first compound 0.01 µM): 0.164
relative viability (NCI-H647; first compound 0.03162 µM): 0.143
relative viability (NCI-H647; first compound 0.1 µM): 0.139
relative viability (LOU-NH91; first compound 0.001 µM): 0.696
relative viability (LOU-NH91; first compound 0.003162 µM): 0.708
relative viability (LOU-NH91; first compound 0.01 µM): 0.781
relative viability (LOU-NH91; first compound 0.03162 µM): 0.62
relative viability (LOU-NH91; first compound 0.1 µM): 0.726
relative viability (SK-MES-1; first compound 0.001 µM): 0.804
relative viability (SK-MES-1; first compound 0.003162 µM): 0.939
relative viability (SK-MES-1; first compound 0.01 µM): 1.05
relative viability (SK-MES-1; first compound 0.03162 µM): 0.572
relative viability (SK-MES-1; first compound 0.1 µM): 0.524
relative viability (NCI-H1993; first compound 0.001 µM): 0.611
relative viability (NCI-H1993; first compound 0.003162 µM): 0.668
relative viability (NCI-H1993; first compound 0.01 µM): 0.622
relative viability (NCI-H1993; first compound 0.03162 µM): 0.586
relative viability (NCI-H1993; first compound 0.1 µM): 0.631
relative viability (EKVX; first compound 0.001 µM): 0.368
relative viability (EKVX; first compound 0.003162 µM): 0.341
relative viability (EKVX; first compound 0.01 µM): 0.35
relative viability (EKVX; first compound 0.03162 µM): 0.252
relative viability (EKVX; first compound 0.1 µM): 0.261
relative viability (LXF-289; first compound 0.001 µM): 0.254
relative viability (LXF-289; first compound 0.003162 µM): 0.189
relative viability (LXF-289; first compound 0.01 µM): 0.222
relative viability (LXF-289; first compound 0.03162 µM): 0.127
relative viability (LXF-289; first compound 0.1 µM): 0.153
relative viability (NCI-H441; first compound 0.001 µM): 0.448
relative viability (NCI-H441; first compound 0.003162 µM): 0.482
relative viability (NCI-H441; first compound 0.01 µM): 0.44
relative viability (NCI-H441; first compound 0.03162 µM): 0.429
relative viability (NCI-H441; first compound 0.1 µM): 0.37
relative viability (HCC-827; first compound 0.003162 µM): 0.521
relative viability (HCC-827; first compound 0.01 µM): 0.529
relative viability (HCC-827; first compound 0.03162 µM): 0.39
relative viability (HCC-827; first compound 0.1 µM): 0.379
